# Source: paper PMC12775434, “Ultra-large virtual screening unveils potent agonists of the neuromodulatory orphan receptor GPR139” (Nature Communications, 2025)
# Where “and” joins values, the source holds several entries; their conditions need not be identical. Identical values can stand only once. Like-named read-outs stand apart in the source and are kept apart here.
# What was measured:
# [1] = molecular target: T1, human muscarinic acetylcholine M1 receptor (M1R) (Homo sapiens, UniProt P11229); assay: Ca2+ mobilization counter-screen in M1R-CHOk1 cells; format: cell-based;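 also: 10 µM test compound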
# T1 sequence (P11229 1-460): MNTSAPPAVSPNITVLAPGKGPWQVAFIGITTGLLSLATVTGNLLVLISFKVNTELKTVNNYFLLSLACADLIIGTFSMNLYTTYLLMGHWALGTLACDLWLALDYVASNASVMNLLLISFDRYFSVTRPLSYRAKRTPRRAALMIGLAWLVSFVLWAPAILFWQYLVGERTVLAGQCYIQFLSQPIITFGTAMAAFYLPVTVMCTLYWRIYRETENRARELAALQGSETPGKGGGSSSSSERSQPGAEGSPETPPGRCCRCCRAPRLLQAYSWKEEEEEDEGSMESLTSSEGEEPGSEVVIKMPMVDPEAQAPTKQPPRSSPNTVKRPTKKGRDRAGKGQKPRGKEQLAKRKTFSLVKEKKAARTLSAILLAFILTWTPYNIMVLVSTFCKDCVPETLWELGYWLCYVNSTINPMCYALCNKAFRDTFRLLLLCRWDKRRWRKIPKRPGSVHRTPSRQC
# Procedure, shortened: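 M1R-CHOk1 cells seeded 20–24 h, loaded with 2 µM Fluo-4 AM (2.5 mM probenecid, 0.01% Pluronic F-68) for 1 h at 37 °C in HBSS/20 mM HEPES pH 7.4. Compounds added after baseline (≤0.3% DMSO); calcium fluorescence read at 37 °C, ex 485/em 525 nm.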
# GPR139 = molecular target: T2, GPR139 (Homo sapiens, UniProt Q6DWJ6); assay: Inositol monophosphate (IP1) accumulation assay, GPR139-CHOk1; format: cell-based; settings: for EC50: read-out: pEC50 IP1 (converted)
# T2 sequence (Q6DWJ6 1-353): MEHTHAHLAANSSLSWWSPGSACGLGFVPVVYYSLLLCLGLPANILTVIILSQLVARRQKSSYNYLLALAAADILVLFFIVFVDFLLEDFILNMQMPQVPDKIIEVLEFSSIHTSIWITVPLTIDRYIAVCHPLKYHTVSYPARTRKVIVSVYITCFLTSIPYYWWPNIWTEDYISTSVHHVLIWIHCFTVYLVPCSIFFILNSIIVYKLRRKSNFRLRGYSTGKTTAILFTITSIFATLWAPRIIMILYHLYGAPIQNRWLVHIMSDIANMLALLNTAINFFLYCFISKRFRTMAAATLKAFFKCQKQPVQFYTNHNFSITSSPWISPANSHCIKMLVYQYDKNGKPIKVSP
# Description: Primary screening and pharmacological characterization of compounds were performed using a CHO-K1 cell line that stably expresses human GPR139 (GPR139-CHOk1). The GPR139-CHOk1 cell line was kindly provided by H. Lundbeck A/S, Denmark[24]. GPR139-CHOk1 cells were grown in Ham’s F-12 Kaighn’s Modification Medium (ThermoFisher #21127030) supplemented with 10% dialyzed fetal bovine serum (US origin, ThermoFisher #26400044), 100 units/mL Penicillin-Streptomycin (ThermoFisher #15140122), and 1 mg/mL Geneticin (ThermoFisher #11811031). […] M1R-CHOk1 cells were purchased from The Missouri S&T cDNA Resource Center (#CEM100TN00). M1R-CHOk1 cells were grown in Ham’s F12 Medium (ThermoFisher #21765029) supplemented with 10% fetal bovine serum (Brazilian origin, ThermoFisher #10270106), 100 units/mL Penicillin-Streptomycin, and 0.25 mg/mL Geneticin. HEK293A cells transiently transfected with GPR139 were used for additional pharmacological assessment of signaling pathways activated by GPR139. HEK239A cells were generously provided by Dr. Asuka Inoue, Tohoku University, Japan. HEK293A cells were grown in Dulbecco’s Modified Eagle Medium (ThermoFisher #31966047) supplemented with 10% dialyzed fetal bovine serum and 100 units/mL Penicillin-Streptomycin. Cell lines were maintained at 37 °C in humidified incubator equilibrated with 5% CO2.
# HTRF IP-One Gq kit (Cisbio #62IPAPEC) was used to detect the accumulation of inositol monophosphate (IP1) as described in the work by Shehata et al.[26]. GPR139-CHOk1 cells were dissociated and resuspended in HEPES buffer. 50,000 cells in 5 µL and 5 µL test compounds diluted from DMSO stocks (final DMSO concentration of maximally 0.3%) in HEPES buffer supplemented with 40 mM LiCl were mixed in each well of white 384-well OptiPlate (PerkinElmer #6007290). The cells were incubated for 1 h at 37 °C. Then, 10 µL detection reagent composed of 2.5% Eu3 + -anti-IP1 antibody and 2.5% IP1-d2 diluted in lysis buffer was added, and the cells were incubated for 1 h at room temperature before measurements. Measurements were performed on EnVision Multimode Plate Reader (PerkinElmer) using excitation light of 340 nm and emission light of 615 nm and 665 nm. The time resolved-fluorescence resonance energy transfer (TR-FRET) 665 nm/615 nm ratio, which is inversely proportional to the IP1 accumulation, was used to determine the IP1 response.
# Pharmacological data and statistical analyses were performed in GraphPad Prism v9–10 (Graphpad Software Inc., San Diego, CA), which are also specifically described in the figure and table legends. The functional assay responses were normalized to buffer (0%) and Lundbeck Cmp 1a or JNJ-63533054 (100%), for Ca^2+ and IP1 experiments in the GPR139-CHOk1 stable cell line or Ca^2+, G protein activation, and arrestin-3 recruitment experiments in the HEK293A cells transiently transfected with GPR139, respectively. Data are from at least three independent experiments, unless stated otherwise. Concentration-response curves were fitted applying non-linear regression using the log (agonist) versus response model with variable slope. ANOVA was applied for comparing results and determining statistical significance. Comparison of responses to the reference was performed using one-way ANOVA with Dunnett’s multiple comparisons test at significance threshold of p < 0.05. Comparison of responses across assays and ligands was performed using two-way ANOVA with Tukey’s multiple comparisons test at a significance threshold of p < 0.05.
structure (smiles),measurement,setting,value
"Cc1noc(C(C)NC(=O)Nc2cccc(-c3ccccc3)c2)n1 (stereo not drawn) [Compound 3, CC(NC(=O)NC=1C=CC=C(C1)C=2C=CC=CC2)C3=NC(C)=NO3]",Ca2+ signal (% of Carbachol),[1]; individual replicates (Supplementary Figure 2),-13 % of Carbachol and -10 % of Carbachol
same,IP1 response (% of Cmp 1a),"GPR139; log [Compound] M -4.5, replicate experiments",41 % of Cmp 1a and 46 % of Cmp 1a and 42 % of Cmp 1a
same,IP1 response (% of Cmp 1a),"GPR139; log [Compound] M -5.0, replicate experiments",22 % of Cmp 1a and 29 % of Cmp 1a and 28 % of Cmp 1a
same,IP1 response (% of Cmp 1a),"GPR139; log [Compound] M -5.5, replicate experiments",8 % of Cmp 1a and 12 % of Cmp 1a and 10 % of Cmp 1a
same,IP1 response (% of Cmp 1a),"GPR139; log [Compound] M -6.0, replicate experiments",0.417 % of Cmp 1a and 2.14 % of Cmp 1a and 6 % of Cmp 1a
same,IP1 response (% of Cmp 1a),"GPR139; log [Compound] M -6.5, replicate experiments",-2.63 % of Cmp 1a and 1.42 % of Cmp 1a and -1.19 % of Cmp 1a
same,IP1 response (% of Cmp 1a),"GPR139; log [Compound] M -7.0, replicate experiments",-0.0724 % of Cmp 1a and 2 % of Cmp 1a and 0.325 % of Cmp 1a
same,IP1 response (% of Cmp 1a),"GPR139; log [Compound] M -7.5, replicate experiments",-1.11 % of Cmp 1a and -1.52 % of Cmp 1a and 2 % of Cmp 1a
same,IP1 response (% of Cmp 1a),"GPR139; log [Compound] M -8.0, replicate experiments",-0.434 % of Cmp 1a and 0.295 % of Cmp 1a and 1.29 % of Cmp 1a
same,EC50,GPR139,50.1 µM
"COc1cc(-c2nc(CC(=O)NC(C)c3ccccc3)no2)ccn1 (stereo not drawn) [Compound 1.7, COC1=NC=CC(C2=NC(CC(NC(C3=CC=CC=C3)C)=O)=NO2)=C1]",Ca2+ signal (% of Carbachol),[1]; individual replicates (Supplementary Figure 5),-3 % of Carbachol and 5.61 % of Carbachol and 2.51 % of Carbachol
same,EC50,"GPR139; Supplementary Table 2, mean ± SEM",1.58 µM
same,Emax,"GPR139; Supplementary Table 2, normalized to Lundbeck Cmp 1a, read-out: Emax (%) IP1",117 ± 14%
same,IP1 response (% of Cmp 1a),"GPR139; log [compound] M -4.5, individual replicates",142 % of Cmp 1a and 109 % of Cmp 1a and 76 % of Cmp 1a and 127 % of Cmp 1a
same,IP1 response (% of Cmp 1a),"GPR139; log [compound] M -5.0, individual replicates",138 % of Cmp 1a and 94 % of Cmp 1a and 74 % of Cmp 1a and 127 % of Cmp 1a
same,IP1 response (% of Cmp 1a),"GPR139; log [compound] M -5.5, individual replicates",84 % of Cmp 1a and 64 % of Cmp 1a and 60 % of Cmp 1a and 90 % of Cmp 1a
same,IP1 response (% of Cmp 1a),"GPR139; log [compound] M -6.0, individual replicates",57 % of Cmp 1a and 49 % of Cmp 1a and 36 % of Cmp 1a and 61 % of Cmp 1a
same,IP1 response (% of Cmp 1a),"GPR139; log [compound] M -6.5, individual replicates",27 % of Cmp 1a and 9 % of Cmp 1a and 14 % of Cmp 1a and 24 % of Cmp 1a
same,IP1 response (% of Cmp 1a),"GPR139; log [compound] M -7.0, individual replicates",16 % of Cmp 1a and 1.76 % of Cmp 1a and 0.565 % of Cmp 1a and 7 % of Cmp 1a
same,IP1 response (% of Cmp 1a),"GPR139; log [compound] M -7.5, individual replicates",8 % of Cmp 1a and -3 % of Cmp 1a and 0.446 % of Cmp 1a and 6 % of Cmp 1a
same,IP1 response (% of Cmp 1a),"GPR139; log [compound] M -8.0, individual replicates",7 % of Cmp 1a and -5.45 % of Cmp 1a and -4.55 % of Cmp 1a and 1 % of Cmp 1a
